Assays:
[1] = molecular target: T1, human cannabinoid CB1 receptors (Homo sapiens, UniProt P21554); test: In vitro affinity for cannabinoid-CB1 receptors, [3H]CP-55,940 radioligand binding, CHO cell membranes; details: for Ki: CHO membranes, [3H]CP-55,940, means of at least two independent experiments, read-out: receptor binding h-CB1 receptor Ki; for factor of higher affinity for human CB1 receptors than non-fluorinated analog compound 24: (S)-(-)-enantiomers versus compound 24
T1 construct: expressed in transfected cells; host or cells: Chinese hamster ovary (CHO) cells, membrane preparations
Procedure: In vitro affinity for cannabinoid-CB1 receptors was determined using membrane preparations of Chinese hamster ovary (CHO) cells wherein human cannabinoid CB1 receptors were stably transfected in conjunction with [^3H]CP-55,940 as radioligand. After incubation of a freshly prepared cell membrane preparation with the [^3H]-ligand, with or without addition of compounds of the invention, separation of bound and free ligand was performed by filtration over glassfiber filters. Radioactivity on the filter was measured by liquid scintillation counting. The binding data were either obtained by CEREP (128, rue Danton, 92500 Rueil-Malmaison, France) or at Solvay Pharmaceuticals B.V. (C. J. van Houtenlaan 36, 1381 CP Weesp, The Netherlands).

rat CB1 receptor = molecular target: T2, rat CB1 receptor (Rattus norvegicus, UniProt P20272); test: In vivo cannabinoid-CB1 receptor antagonism, CP-55,940-induced hypotension test in rat; details: for ED50: rat, p.o., anaesthetized male rats, CP-55,940 0.1 mg/kg i.v., read-out: blood pressure rat CB1 receptor ED50 (mg/kg, p.o.)
T2 construct: Male normotensive rats (225-300 g; Harlan, Horst, The Netherlands) were anaesthetized; from tissue; host or cells: whole animal: male normotensive rats (Harlan)
Procedure: In vivo cannabinoid-CB1 receptor antagonism was assessed with the CP-55,940-induced hypotension test in rat. Male normotensive rats (225-300 g; Harlan, Horst, The Netherlands) were anaesthetized with pentobarbital (80 mg/kg ip). Blood pressure was measured, via a cannula inserted into the left carotid artery, by means of a Spectramed DTX-plus pressure transducer (Spectramed B.V., Bilthoven, The Netherlands). After amplification by a Nihon Kohden Carrier Amplifier (Type AP-621G; Nihon Kohden B.V., Amsterdam, The Netherlands), the blood pressure signal was registered on a personal computer (Compaq Deskpro 386s), by means of a Po-Ne-Mah data-acquisition program (Po-Ne-Mah Inc., Storrs, USA). Heart rate was derived from the pulsatile pressure signal. All compounds were administered orally as a microsuspension in 1% methylcellulose 30 minutes before induction of the anesthesia, 60 minutes prior to administration of the CB1 receptor agonist CP-55,940. The injection volume was 10 ml/kg. After haemodynamic stabilization the CB1 receptor agonist CP-55,940 (0.1 mg/kg i.v.) was administered and the hypotensive effect established (Wagner 2001).

[2] = molecular target: T3, human cannabinoid CB2 receptors (Homo sapiens, UniProt P34972); test: In vitro affinity for cannabinoid-CB2 receptors, [3H]CP-55,940 radioligand binding, CHO cell membranes; details: means of at least two independent experiments, read-out: receptor binding h-CB2 receptor Ki
T3 construct: expressed in transfected cells; host or cells: CHO cells, membrane preparations
Procedure: In vitro affinity for cannabinoid-CB2 receptors was determined using membrane preparations of CHO cells wherein human cannabinoid CB2 receptors were stably transfected in conjunction with [^3H]CP-55,940 as radioligand. After incubation of a freshly prepared cell membrane preparation with the [^3H]-ligand, with or without addition of compounds of the invention, separation of bound and free ligand was performed by filtration over glassfiber filters. Radioactivity on the filter was measured by liquid scintillation counting.

T1 sequence (P21554 whole entry): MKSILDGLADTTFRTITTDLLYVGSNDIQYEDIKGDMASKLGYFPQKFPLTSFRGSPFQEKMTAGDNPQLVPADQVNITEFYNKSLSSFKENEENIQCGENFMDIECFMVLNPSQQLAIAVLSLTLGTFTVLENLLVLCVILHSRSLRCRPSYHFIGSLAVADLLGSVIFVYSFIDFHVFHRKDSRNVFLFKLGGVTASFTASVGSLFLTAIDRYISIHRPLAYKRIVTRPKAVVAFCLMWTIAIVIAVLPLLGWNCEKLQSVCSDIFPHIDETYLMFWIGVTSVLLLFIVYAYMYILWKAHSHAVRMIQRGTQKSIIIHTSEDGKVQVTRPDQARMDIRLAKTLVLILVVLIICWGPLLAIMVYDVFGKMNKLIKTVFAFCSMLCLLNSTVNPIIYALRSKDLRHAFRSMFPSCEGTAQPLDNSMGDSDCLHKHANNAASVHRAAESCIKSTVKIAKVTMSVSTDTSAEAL
T2 sequence (P20272 whole entry): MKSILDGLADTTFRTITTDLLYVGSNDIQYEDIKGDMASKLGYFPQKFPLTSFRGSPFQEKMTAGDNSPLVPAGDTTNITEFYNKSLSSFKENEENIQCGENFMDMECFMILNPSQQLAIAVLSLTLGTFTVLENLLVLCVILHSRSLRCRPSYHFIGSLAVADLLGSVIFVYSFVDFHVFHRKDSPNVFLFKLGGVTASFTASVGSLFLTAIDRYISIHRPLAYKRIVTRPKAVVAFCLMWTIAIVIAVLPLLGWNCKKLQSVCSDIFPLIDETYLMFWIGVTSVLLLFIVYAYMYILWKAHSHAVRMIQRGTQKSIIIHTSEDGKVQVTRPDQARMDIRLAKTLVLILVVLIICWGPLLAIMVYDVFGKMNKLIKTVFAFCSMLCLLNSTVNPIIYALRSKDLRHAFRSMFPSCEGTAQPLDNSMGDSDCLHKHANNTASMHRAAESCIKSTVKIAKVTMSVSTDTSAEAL
T3 sequence (P34972 whole entry): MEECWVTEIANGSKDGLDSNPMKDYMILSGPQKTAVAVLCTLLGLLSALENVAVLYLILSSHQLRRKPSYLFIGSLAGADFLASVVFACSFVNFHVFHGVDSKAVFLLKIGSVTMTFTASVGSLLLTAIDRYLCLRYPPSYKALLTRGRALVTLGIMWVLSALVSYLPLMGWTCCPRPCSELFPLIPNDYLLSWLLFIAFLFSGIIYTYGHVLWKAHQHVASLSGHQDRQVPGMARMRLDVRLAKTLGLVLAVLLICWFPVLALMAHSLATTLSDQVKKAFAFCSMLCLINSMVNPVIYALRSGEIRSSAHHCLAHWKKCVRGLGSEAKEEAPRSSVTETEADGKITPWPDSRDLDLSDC

## CN=C(NS(=O)(=O)N1CCC(F)(F)CC1)N1CC(c2ccccc2)C(c2ccc(Cl)cc2)=N1 (racemic) [compound 1, N-[(4,4-difluoropiperidin-1-yl)sulfonyl]-N′-methyl-3-(4-chlorophenyl)-4-phenyl-4,5-dihydro-(1H)-pyrazole-1-carboxamidine]
[1]
  Ki: 0.01 µM

## CN/C(=N\S(=O)(=O)N1CCC(C(F)(F)F)CC1)N1CC(c2ccccc2)C(c2ccc(Cl)cc2)=N1 (racemic) [compound 2, N-[(4-(Trifluoromethyl)piperidin-1-yl)sulfonyl]-N′-methyl-3-(4-chlorophenyl)-4-phenyl-4,5-dihydro-(1H)-pyrazole-1-carboxamidine]
[1]
  Ki: 0.003 µM

## CNC(=NS(=O)(=O)N1CCC(F)CC1)N1CC(c2ccccc2)C(c2ccc(Cl)cc2)=N1 (racemic) [compound 3, N-[(4-Fluoropiperidin-1-yl)sulfonyl]-N′-methyl-3-(4-chlorophenyl)-4-phenyl-4,5-dihydro-(1H)-pyrazole-1-carboxamidine]
[1]
  Ki: 0.005 µM

## CN=C(NS(=O)(=O)N1CCCC(F)C1)N1CC(c2ccccc2)C(c2ccc(Cl)cc2)=N1 (racemic) [compound 4, N-[(3-Fluoropiperidin-1-yl)sulfonyl]-N′-methyl-3-(4-chlorophenyl)-4-phenyl-4,5-dihydro-(1H)-pyrazole-1-carboxamidine]
[1]
  Ki: 0.016 µM
other
  melting point: 170 to 171 °C

## CN=C(NS(=O)(=O)N1CCCC(F)(F)C1)N1CC(c2ccccc2)C(c2ccc(Cl)cc2)=N1 (racemic) [compound 5, N-[(3,3-Difluoropiperidin-1-yl)sulfonyl]-N′-methyl-3-(4-chlorophenyl)-4-phenyl-4,5-dihydro-(1H)-pyrazole-1-carboxamidine]
[1]
  Ki: 0.01 µM
other
  melting point: 166 to 167 °C

## CCN=C(NS(=O)(=O)N1CCC(F)(F)CC1)N1CC(c2ccccc2)C(c2ccc(Cl)cc2)=N1 (racemic) [compound 6, N-[(4,4-Difluoropiperidin-1-yl)sulfonyl]-N′-ethyl-3-(4-chlorophenyl)-4-phenyl-4,5-dihydro-(1H)-pyrazole-1-carboxamidine]
[1]
  Ki: 0.01 µM

## CN(C)/C(=N/S(=O)(=O)N1CCC(F)(F)CC1)N1CC(c2ccccc2)C(c2ccc(Cl)cc2)=N1 (centres unmarked) [compound 7, N^2-[(4,4-Difluoropiperidin-1-yl)sulfonyl]-N^1-dimethyl-3-(4-chlorophenyl)-4-phenyl-4,5-dihydro-(1H)-pyrazole-1-carboxamidine]
[1]
  Ki: 0.025 µM

## CN=C(NS(=O)(=O)N1CCC(F)(F)CC1)N1C[C@H](c2ccccc2)C(c2ccc(Cl)cc2)=N1 [compound 8, (−)-(4S)—N-[(4,4-difluoropiperidin-1-yl)sulfonyl]-N′-methyl-3-(4-chlorophenyl)-4-phenyl-4,5-dihydro-(1H)-pyrazole-1-carboxamidine]
[1]
  factor of higher affinity for human CB1 receptors than non-fluorinated analog compound 24: 12 fold
  Ki: 0.005 µM

## CN=C(NS(=O)(=O)N1CCC(C(F)(F)F)CC1)N1C[C@H](c2ccccc2)C(c2ccc(Cl)cc2)=N1 [compound 9, (−)-(4S)—N-[(4-(Trifluoromethyl)piperidin-1-yl)sulfonyl]-N′-methyl-3-(4-chlorophenyl)-4-phenyl-4,5-dihydro-(1H)-pyrazole-1-carboxamidine]
[1]
  factor of higher affinity for human CB1 receptors than non-fluorinated analog compound 24: 19 fold
  Ki: 0.003 µM
Rat CB1 receptor; oral administration, CP-55,940-induced hypotension test
  in vivo activity after oral administration compared with compound 24: more active
Rat CB1 receptor
  ED50: 2 mg/kg
[2]
  Ki: 0.316 µM

## CN=C(NS(=O)(=O)N1CCC(C(F)(F)F)CC1)N1C[C@@H](c2ccccc2)C(c2ccc(Cl)cc2)=N1 [compound 10, (+)-(4R)—N-[(4-(Trifluoromethyl)piperidin-1-yl)sulfonyl]-N′-methyl-3-(4-chlorophenyl)-4-phenyl-4,5-dihydro-(1H)-pyrazole-1-carboxamidine]
[1]
  Ki: 0.125 µM
[1]; distomer versus eutomer compound 9
  affinity for human CB1 receptors, fold less than that of compound 9: about 40 fold
Rat CB1 receptor; given at 30 mg/kg
  in vivo activity in the hypotension test: devoid of in vivo activity
Rat CB1 receptor
  ED50: > 30 mg/kg
[2]
  Ki: > 1 µM

## CN/C(=N/S(=O)(=O)N1CCCCC1)N1CC(c2ccccc2)C(c2ccc(Cl)cc2)=N1 (centres unmarked) [compound 21, reference compound]
[1]
  Ki: 0.152 µM

## CN/C(=N/S(=O)(=O)N1CCCCC1)N1C[C@H](c2ccccc2)C(c2ccc(Cl)cc2)=N1 [compound 24, reference compound]
[1]
  Ki: 0.058 µM
Rat CB1 receptor
  ED50: 8 mg/kg
[2]
  Ki: 3.5 µM

## CNC(=NS(=O)(=O)N1CCCCC1)N1C[C@@H](c2ccccc2)C(c2ccc(Cl)cc2)=N1 [compound 25, reference compound]
[1]
  Ki: 0.763 µM

Reference: patent US20110172274A1, “FLUORO-SUBSTITUTED 3,4-DIARYL-4,5-DIHYDRO-1H-PYRAZOLE-1-CARBOXAMIDINE DERIVATIVES HAVING CB1-ANTAGONISTIC ACTIVITY” (priority 2008, published 2011)
